Source: PubChem BioAssay (NCI)
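The compound was tested at five concentrations on cells cultured in 96-well plates, with a 48-hour exposure period. TGI denotes the concentration required for complete inhibition of growth.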

What follows are molecules tested on K-562 leukemia (assay: NCI tumour cell line growth inhibition, 48 h).
In the case of `COc1ccc2c(c1)[n+]([O-])c(-c1ccc(OC)c(OC)c1)c(N)[n+]2[O-]`, the TGI was over 100 µM.
In the case of `CC(C)CC(NC(=O)OC(C)(C)C)C(=O)Nc1ccc(Nc2nc(F)nc(-c3c4ccccc4c4n3CCS4)n2)cc1` (configuration not stated), the TGI was 57.8 µM.
`O=C(O/C(=C(/N=Nc1ccccc1)c1ccccc1)c1ccccc1)c1ccccc1` was tested, and the TGI was over 100 µM.
In the case of `COc1cc([C@@H]2c3cc4c(cc3[C@@H](OC(=O)c3ccc(N)cc3)C3COC(=O)[C@@H]32)OCO4)cc(OC)c1O` (some centres not stated), the TGI was over 95 µM.
`Cc1ccc(SSc2ccc(C)cc2C(=O)O)c(C(=O)O)c1` gave a TGI of over 100 µM.
`CC(=O)NNc1nc(C)c(C(=O)/C=C/c2ccccc2Cl)s1` showed a TGI of over 100 µM.
Work on `O=C1NC2(CCCCCC2)C2CCCCCCC12O` (configuration not stated) yielded a TGI of over 100 µM.

What follows are molecules tested on CAKI-1 renal (assay: NCI tumour cell line growth inhibition, 48 h).
`CCC12CCCN(Cc3ccccc3)C1c1c(n(C)c3ccccc13)C(C(=O)OC)C2` (configuration not stated) was tested, and the TGI was over 239 µM.
In the case of `COc1ccc2c(c1)[n+]([O-])c(-c1ccc(OC)c(OC)c1)c(N)[n+]2[O-]`, the TGI was 72.2 µM.
In the case of `CC(C)CC(NC(=O)OC(C)(C)C)C(=O)Nc1ccc(Nc2nc(F)nc(-c3c4ccccc4c4n3CCS4)n2)cc1` (configuration not stated), the TGI was 33.1 µM.
`O=C(O/C(=C(/N=Nc1ccccc1)c1ccccc1)c1ccccc1)c1ccccc1` was tested, and the TGI was over 100 µM.
For `COc1cc([C@@H]2c3cc4c(cc3[C@@H](OC(=O)c3ccc(N)cc3)C3COC(=O)[C@@H]32)OCO4)cc(OC)c1O` (some centres not stated), the TGI was over 95 µM.
Molecule `Cc1ccc(SSc2ccc(C)cc2C(=O)O)c(C(=O)O)c1` has a TGI of over 100 µM.
`CC(=O)NNc1nc(C)c(C(=O)/C=C/c2ccccc2Cl)s1` was tested, and the TGI was over 100 µM.
`O=C1NC2(CCCCCC2)C2CCCCCCC12O` (configuration not stated) showed a TGI of over 100 µM.

Each molecule was assayed on A498 renal (assay: NCI tumour cell line growth inhibition, 48 h).
`COc1ccc2c(c1)[n+]([O-])c(-c1ccc(OC)c(OC)c1)c(N)[n+]2[O-]` gave a TGI of over 100 µM.
Molecule `CC(C)CC(NC(=O)OC(C)(C)C)C(=O)Nc1ccc(Nc2nc(F)nc(-c3c4ccccc4c4n3CCS4)n2)cc1` (configuration not stated) has a TGI of 45.8 µM.
Molecule `COc1cc([C@@H]2c3cc4c(cc3[C@@H](OC(=O)c3ccc(N)cc3)C3COC(=O)[C@@H]32)OCO4)cc(OC)c1O` (some centres not stated) has a TGI of 31.5 µM.
Work on `Cc1ccc(SSc2ccc(C)cc2C(=O)O)c(C(=O)O)c1` yielded a TGI of over 100 µM.
With `CC(=O)NNc1nc(C)c(C(=O)/C=C/c2ccccc2Cl)s1` the TGI was over 100 µM.
In the case of `O=C1NC2(CCCCCC2)C2CCCCCCC12O` (configuration not stated), the TGI was over 100 µM.

Each molecule was assayed on HOP-18 NSCLC (assay: NCI tumour cell line growth inhibition, 48 h).
`COc1ccc2c(c1)[n+]([O-])c(-c1ccc(OC)c(OC)c1)c(N)[n+]2[O-]` was tested, and the TGI was over 100 µM.
With `CC(C)CC(NC(=O)OC(C)(C)C)C(=O)Nc1ccc(Nc2nc(F)nc(-c3c4ccccc4c4n3CCS4)n2)cc1` (configuration not stated) the TGI was 50.6 µM.
Work on `O=C(O/C(=C(/N=Nc1ccccc1)c1ccccc1)c1ccccc1)c1ccccc1` yielded a TGI of over 100 µM.
`COc1cc([C@@H]2c3cc4c(cc3[C@@H](OC(=O)c3ccc(N)cc3)C3COC(=O)[C@@H]32)OCO4)cc(OC)c1O` (some centres not stated) gave a TGI of over 95 µM.
`CC(=O)NNc1nc(C)c(C(=O)/C=C/c2ccccc2Cl)s1` gave a TGI of over 100 µM.
`O=C1NC2(CCCCCC2)C2CCCCCCC12O` (configuration not stated) was tested, and the TGI was over 100 µM.

Each molecule was assayed on UO-31 renal (assay: NCI tumour cell line growth inhibition, 48 h).
For `COc1ccc2c(c1)[n+]([O-])c(-c1ccc(OC)c(OC)c1)c(N)[n+]2[O-]`, the TGI was over 100 µM.
Molecule `CC(C)CC(NC(=O)OC(C)(C)C)C(=O)Nc1ccc(Nc2nc(F)nc(-c3c4ccccc4c4n3CCS4)n2)cc1` (configuration not stated) has a TGI of 34.8 µM.
Molecule `O=C(O/C(=C(/N=Nc1ccccc1)c1ccccc1)c1ccccc1)c1ccccc1` has a TGI of over 100 µM.
With `COc1cc([C@@H]2c3cc4c(cc3[C@@H](OC(=O)c3ccc(N)cc3)C3COC(=O)[C@@H]32)OCO4)cc(OC)c1O` (some centres not stated) the TGI was 34.5 µM.
Molecule `Cc1ccc(SSc2ccc(C)cc2C(=O)O)c(C(=O)O)c1` has a TGI of over 100 µM.
Molecule `CC(=O)NNc1nc(C)c(C(=O)/C=C/c2ccccc2Cl)s1` has a TGI of over 100 µM.
`O=C1NC2(CCCCCC2)C2CCCCCCC12O` (configuration not stated) showed a TGI of over 100 µM.

These molecules were tested on SF-268 CNS (assay: NCI tumour cell line growth inhibition, 48 h).
Molecule `CCC12CCCN(Cc3ccccc3)C1c1c(n(C)c3ccccc13)C(C(=O)OC)C2` (configuration not stated) has a TGI of over 239 µM.
`COc1ccc2c(c1)[n+]([O-])c(-c1ccc(OC)c(OC)c1)c(N)[n+]2[O-]` gave a TGI of over 100 µM.
Work on `CC(C)CC(NC(=O)OC(C)(C)C)C(=O)Nc1ccc(Nc2nc(F)nc(-c3c4ccccc4c4n3CCS4)n2)cc1` (configuration not stated) yielded a TGI of 61.3 µM.
With `COc1cc([C@@H]2c3cc4c(cc3[C@@H](OC(=O)c3ccc(N)cc3)C3COC(=O)[C@@H]32)OCO4)cc(OC)c1O` (some centres not stated) the TGI was over 95 µM.
`Cc1ccc(SSc2ccc(C)cc2C(=O)O)c(C(=O)O)c1` gave a TGI of over 100 µM.
Work on `CC(=O)NNc1nc(C)c(C(=O)/C=C/c2ccccc2Cl)s1` yielded a TGI of over 100 µM.
With `O=C1NC2(CCCCCC2)C2CCCCCCC12O` (configuration not stated) the TGI was over 100 µM.

The molecules below were run on SK-MEL-2 melanoma (assay: NCI tumour cell line growth inhibition, 48 h).
Molecule `CCC12CCCN(Cc3ccccc3)C1c1c(n(C)c3ccccc13)C(C(=O)OC)C2` (configuration not stated) has a TGI of over 239 µM.
`COc1ccc2c(c1)[n+]([O-])c(-c1ccc(OC)c(OC)c1)c(N)[n+]2[O-]` showed a TGI of over 100 µM.
`CC(C)CC(NC(=O)OC(C)(C)C)C(=O)Nc1ccc(Nc2nc(F)nc(-c3c4ccccc4c4n3CCS4)n2)cc1` (configuration not stated) showed a TGI of 33.6 µM.
With `O=C(O/C(=C(/N=Nc1ccccc1)c1ccccc1)c1ccccc1)c1ccccc1` the TGI was over 100 µM.
With `COc1cc([C@@H]2c3cc4c(cc3[C@@H](OC(=O)c3ccc(N)cc3)C3COC(=O)[C@@H]32)OCO4)cc(OC)c1O` (some centres not stated) the TGI was 59.6 µM.
Work on `Cc1ccc(SSc2ccc(C)cc2C(=O)O)c(C(=O)O)c1` yielded a TGI of over 100 µM.
In the case of `CC(=O)NNc1nc(C)c(C(=O)/C=C/c2ccccc2Cl)s1`, the TGI was over 100 µM.
For `O=C1NC2(CCCCCC2)C2CCCCCCC12O` (configuration not stated), the TGI was over 100 µM.

These molecules were tested on SF-295 CNS (assay: NCI tumour cell line growth inhibition, 48 h).
`CCC12CCCN(Cc3ccccc3)C1c1c(n(C)c3ccccc13)C(C(=O)OC)C2` (configuration not stated) gave a TGI of 231 µM.
`COc1ccc2c(c1)[n+]([O-])c(-c1ccc(OC)c(OC)c1)c(N)[n+]2[O-]` was tested, and the TGI was over 100 µM.
For `CC(C)CC(NC(=O)OC(C)(C)C)C(=O)Nc1ccc(Nc2nc(F)nc(-c3c4ccccc4c4n3CCS4)n2)cc1` (configuration not stated), the TGI was 35.9 µM.
